Assay [1] deals with Metallo-beta-lactamase type 2 (Serratia marcescens) (UniProt P52699). Nature of the assay: Inhibition of Serratia marcescens IMP-1 expressed in Escherichia coli BL21 (DE3) at 5 mM using cephalothin as substrate preincubated for 5 mins followed by substrate addition.
Assay [2] shares this target. Nature of the assay: Inhibition of Serratia marcescens IMP-1 expressed in Escherichia coli BL21 (DE3) at 5 mM using cephalothin as substrate preincubated for 5 mins followed by substrate addition relative to control.
Assay [3] concerns the target Metallo-beta-lactamase type 2 (Serratia marcescens, UniProt P52699). Nature of the assay: Inhibition of Serratia marcescens IMP-1 expressed in Escherichia coli BL21 (DE3) using cephalothin as substrate preincubated for 5 mins followed by substrate addition relative to citrate.

Structures are written as SMILES. Calls of active or inactive are those of the source. No cut-off for these calls is given here. Bounds are passed on as bounds.

Chain of Metallo-beta-lactamase type 2 (Serratia marcescens) (P52699 19-246 limits assumed): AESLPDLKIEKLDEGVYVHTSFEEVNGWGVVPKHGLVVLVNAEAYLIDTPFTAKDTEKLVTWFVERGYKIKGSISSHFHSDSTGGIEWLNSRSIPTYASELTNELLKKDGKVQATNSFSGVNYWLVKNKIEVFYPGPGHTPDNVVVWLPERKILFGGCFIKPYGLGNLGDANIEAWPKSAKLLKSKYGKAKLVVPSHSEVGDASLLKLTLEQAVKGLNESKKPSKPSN
Chain of Metallo-beta-lactamase type 2 (P52699 whole entry): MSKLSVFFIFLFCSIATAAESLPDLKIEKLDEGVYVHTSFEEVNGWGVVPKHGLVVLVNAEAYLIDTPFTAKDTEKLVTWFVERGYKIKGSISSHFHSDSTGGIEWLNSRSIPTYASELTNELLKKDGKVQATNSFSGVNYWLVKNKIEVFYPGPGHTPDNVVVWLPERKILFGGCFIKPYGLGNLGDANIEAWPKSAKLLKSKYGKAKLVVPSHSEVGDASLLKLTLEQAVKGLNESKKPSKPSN

`O=C(O)CC(O)(CC(=O)O)C(=O)O`: in assay [1], the inhibition entry is “inactive”.

In assay [2], `O=C(O)CC(O)(CC(=O)OCc1ccccc1)C(=O)O` (stereo not drawn) gave an inhibition of 30%. This molecule showed an IC50 in assay [3] of more than 5 mM.

The record behind these values is ChEMBL document CHEMBL5230146, “Crystal Structures of Metallo-β-Lactamase (IMP-1) and Its D120E Mutant in Complexes with Citrate and the Inhibitory Effect of the Benzyl Group in Citrate Monobenzyl Ester” (J Med Chem, 2021).
